From US6624120B1, “Substituted herbicidal phenyluracils” (priority 1999, dated 2003)

Tests used:
[1] = logP determination by HPLC (EEC Directive 79/831 Annex V.A8), reversed-phase column C 18; type: physicochemical
Experimental: The logP values given in Table 1 were determined in accordance with EEC Directive 79/831 Annex V.A8 by HPLC (High Performance Liquid Chromatography) using a reversed-phase column (C 18). Temperature: 43° C.
(a) Mobile phases for the determination in the acidic range: 0.1% aqeuous phosphoric acid, acetonitrile; linear gradient from 10% acetonitrile to 90% acetonitrile—the corresponding test results in Table 1 are labelled^a).
(b) Mobile phases for the determination in the neutral range: 0.01 molar aqueous phosphate buffer solution, acetonitrile; linear gradient from 10% acetonitrile to 90% acetonitrile—the corresponding test results in Table 1 are labelled^b).
Calibration was carried out using unbranched alkan-2-ones (having 3 to 16 carbon atoms) with known logP values (determination of the logP values by the retention times using linear interpolation between two successive alkanones).

[2] = reversed-phase HPLC column (C 18); a) acidic range: 0.1% aqueous phosphoric acid/acetonitrile gradient, 43° C.

Row | melting point [°C] | chromatographic logP [1, 2] | SMILES | further results
1 | 133 |  | CCOC(=O)C(C)Oc1ccc2ccc(Oc3cc(-n4c(=O)cc(C(F)(F)F)n(C)c4=O)c(F)cc3C#N)cc2c1 (racemic) | 
2 |  | 2.11 | COc1ccc2cc(Oc3cc(-n4c(=O)cc(C(=O)O)[nH]c4=O)c(F)cc3C#N)ccc2c1 [Example 31, 1-[4-cyano-2-fluoro-5-(6-methoxy-naphthalen-2-yl-oxy)-phenyl]-2,6-dioxo-1,2,3,6-tetrahydro-pyrimidine-4-carboxylic acid] | 

The next lines start with the molecule.

Row | SMILES | melting point [°C] | chromatographic logP [1, 2] | further results
3 | CCOC(=O)[C@@H](C)Oc1ccc2cc(Oc3cc(-n4c(=O)cc(C(F)(F)F)n(C)c4=O)c(F)cc3C#N)ccc2c1 [Example 6, ethyl (R)-2-[6-(2-cyano-4-fluoro-5-[3-methyl-2,6-dioxo-4-trifluoromethyl-3,6-dihydro-1(2H)-pyrimidinyl]-phenoxy)-2-naphthyl-oxy]-propanoate] |  |  | chromatographic logP ([1]; reversed-phase HPLC column (C 18), at pH 2.3): 3.99
4 | N#Cc1cc(F)c(-n2c(=O)cc(C(F)(F)F)[nH]c2=O)cc1Oc1cccc2c(O)cccc12 | 168 |  | 
5 | COC(=O)c1cc(=O)n(-c2cc(Oc3ccc4cc(OC)ccc4c3)c(C#N)cc2F)c(=O)n1C [Example 33, methyl I-[4-cyano-2-fluoro-5-(6-methoxy-naphthalen-2-yl-oxy)-phenyl]-2,6-dioxo-3-methyl-1,2,3,6-tetrahydro-pyrimidine-4-carboxylate] |  | 3.22 | 
6 | COc1cccc2c(Oc3cc(-n4c(=O)cc(C(F)(F)F)n(C)c4=O)c(F)cc3C#N)cccc12 | 109 |  | 
7 | N#Cc1cc(F)c(-n2c(=O)cc(C(F)(F)F)[nH]c2=O)cc1Oc1ccc2ccccc2c1 | 92 |  | 
8 | Cn1c(C(F)(F)F)cc(=O)n(-c2cc(Oc3ccc4cc(O)ccc4c3)c(C#N)cc2F)c1=O | 174 |  | 
9 | CCOC(=O)NC1=CC(=O)N(c2cc(Oc3ccc4cc(OC)ccc4c3)c(C#N)cc2F)C1=O [Example (VII-1), ethyl [1-(4-cyano-2-fluoro-5-(6-methoxy-naphthalen-2-yl-oxy)-phenyl)-2,5-dioxo-2,5-dihydro-1H-pyrrol-3-yl]-carbamate] |  |  | chromatographic logP ([1]; mobile-phase label not given): 3.63
10 | COc1ccc2cc(Oc3cc(-n4c(=O)cc(C(N)=O)n(C)c4=O)c(F)cc3C#N)ccc2c1 [Example 35, 1-[4-cyano-2-fluoro-5-(6-methoxy-naphthalen-2-yl-oxy)-phenyl]-2,6-dioxo-3-methyl-1,2,3,6-tetrahydro-pyrimidine4-carboxamide] |  | 2.06 | 
